How the values were obtained:
[1] = system: transient middle cerebral artery occlusion (MCAO) in rats; details: after transient MCAO; cited from earlier work
[2] = system: 5-FU treated C57BL/6 mice; test: Leukocytopenia animal model (5-FU); type: in vivo
From the text: This study evaluates the hematopoietic recovery of peripheral blood and bone marrow cells following treatment with 5-FU (a myeloablative reagent) and compares the recoveries of various doses of the test compound with a cytokine known to enhance recovery rhG-CSF. The introduction of the chemotherapeutic agent causes a decrease in the peripheral blood white blood cell count and in particular, the neutrophil count. […] 5-FU acts by killing all the dividing cells, sparing primitive stem cells which are relatively quiescent and are thus not impacted by the treatment. Following treatment, primitive cells are recruited to proliferate and differentiate, thus re-establishing normal peripheral blood and femoral cell counts. This model may be used to evaluate compounds that could facilitate the recruitment and proliferation of the primitive cells and assess the kinetics of recovery of bone marrow as well as mature cell populations (white blood cells, red blood cells and platelets) in the blood.
One hundred and five C57BL/6 mice at 6-8 weeks of age were purchased from Jackson Labs. All, with the exception of the 4 untreated control mice were treated with 150 mg/kg 5-Fluorouracil (5-FU) interperitoneal (ip) at day 0. The four untreated mice (Group 1) were sacrificed on day 12 and they represent the “normal variability in blood and cell counts”. The 5-FU treated mice were divided equally into 4 distinct groups (Groups 2, 3, 4 and 5). On day −1 (the day before treatment with 5-FU) through to day 12, the mice in group 2 were treated at 8 a.m. and 6 p.m. with just solvent (20% PEG 400/10% Vitamin E TPGS/70% water) and served as the solvent control for groups 4 and 5.
Four mice from this group were sacrificed on days 4, 6, 8, 10 and 12 following the final dose of solvent the morning before sacrificing. On days 1 through 4, the mice in group three were dosed with 50 ug/kg rhG-CSF twice daily with 6 hours separating the daily doses. Four mice from this group were also sacrificed on days 4, 6, 8, 10 and 12. For treatment of test compound, groups 4 and 5, dosing was done as indicated above with the solvent control (2 times daily at 8 am and 6 pm) with compound that was prepared fresh each day.
Compound I-3 was weighed out into 13 vials and an appropriate amount of solvent added to achieve a final concentration for dosing at 30 mg/Kg (high dose). The compound was solubilized by sonication in solvent for 2-3 minutes and then 30% of the volume removed and diluted 1:3 with solvent to prepare compound for dosing at 10 mg/Kg (low dose). This was done daily and delivered to the animal technologist at 1 pm for the evening and next morning dosing. The unused compound was returned and frozen the next day when the freshly prepared sample for the next doses delivered. On days 1 through 12, mice in group 4 received the low dose of compound ([…]) and mice in group 5 received the high dose of compound (30 mg/Kg) twice daily. Four mice were sacrificed for each group on days 4, 6, 8, 10 and 12.
Each time mice were sacrificed from any of the groups, peripheral blood was collected in EDTA microtainer tubes by cardiac puncture. Approximately 400 uL of the blood was sent for analysis of blood indices (WBC, ANC, platelets, hemoglobin and hematocrit) at a central veterinary service laboratory using an automated system. The remainder of the blood was sent to STI where the plasma was separated by centrifugation at 8000 r.p.m. for 10 minutes and stored at −80° C. for future bioassays. Both femurs were also harvested and cells extracted and processed. The femoral cells were counted, red blood cells lysed and the cells subsequently prepared (at 5×10^6 cells/100 uL in Laemmli buffer and an equivalent unprocessed cell pellet) and stored at −80° C. for future protein analyses. Also on day 12, when the animals were sacrificed, their livers were removed and stored in 10% neutral formalin for future analysis. […]

β-catenin [3] = test: Biomarker for leukocytopenia: β-catenin in PBMC; type: in vivo, mice; details: all doses
GSK-3 α/β pTYR = test: pTYR biomarker analysis in brain, Post Stroke Model I; type: in vivo, rat; details: all doses, termination of study
Method: To track the activity of Compound I-3 in the CNS of rats subjected to MCAO, brains were removed and protein lysate was obtained as described above from both vehicle treated and compound treated animals at the termination of the study. Lysates were analyzed by Western blot and probed for GSK-3 α/β pTYR levels.

[4] = system: embolic occlusion of the middle cerebral artery (MCAO) in the rat; test: Post Stroke Recovery Model I (embolic MCAO); type: in vivo
Method: This study investigates the effect of compounds on volume of cerebral infarction, cell proliferation, and functional recovery after embolic occlusion of the middle cerebral artery (MCAO) in the rat.
Ten Rats, subjected to MCAO (Zhang R L, et. al., 1997 # 1), were randomly assigned to either Vehicle or Compound I-3 after MCAO. The treatment was administered once daily orally starting 24 hours after MCAo for 14 days. 5-bromo-2-deoxyuridine (BrdU, Sigma; 100 mg/kg, i.p.) is administered at 1 day after MCAO, and consecutively for 6 days. Functional assessments are performed before MCAO and at day 1, day 7 and day 14 after MCAO by an investigator who is blinded to the study. The assessment included Neurological Severity Score (mNSS) and Adhesive removal test score, described below. A total of twenty rats are sacrificed at 14 days after MCAO. Three contralateral hemispheres of each group are assigned for analysis. Volume of infarction and cell proliferation in the ipsilateral subventricular zone (SVZ) are measured.
Rats are tested for left forelimb somatosensory deficit with the adhesive removal test (Schallert T, et. al., 1984 # 3). Each animal received 3 trials by placing round strips of packing tape (1.2 cm in diameter) at each testing day and the mean time (seconds) required to remove stimuli from the left forelimb is was recorded.
All the animals are anesthetized with ketamine (44 mg/kg IM) and xylazine (13 mg/kg IM) and sacrificed at fourteen days after MCA occlusion. […] Infarct volumes are measured using a Global Lab Image analysis program (Data Translation). The area of both hemispheres and the area containing the ischemic neuronal damage (mm^2) are calculated by tracing the area on the computer screen. The lesion volume […] is determined by multiplying the appropriate area by the section interval thickness (Chen H, et al., 1992, # 4). […]
To visualize specificity of the immunohischemical reaction, immunostaining of BrdU (a monoclonal antibody against BrdU, 1:100, DAK) is employed. […] BrdU-immunoreactive nuclei in the SVZ are counted on a computer monitor to improve visualization. […]

β-catenin [5] = test: β-catenin in brain, Post Stroke Model I; type: in vivo, rat; details: all doses
GSK-3α/β pTYR = test: Biomarker for leukocytopenia: pTYR in PBMC (Western blot); type: in vivo, mice; details: all doses
Method: To track the activity of Compound (I-3) in mice subjected to 5-FU treatment, peripheral blood was removed at time of sacrifice from both compound and vehicle-treated mice and a protein lysate was obtained from peripheral blood mononuclear cells (PBMC) after removal of red blood cells. Lysates were analyzed by Western blot and probed for GSK-3α/β pTYR levels.

[6] = once daily orally starting 24 hours after MCAo for 14 days

Question: Which “infarct size in rat brains” value [1] does the source give for “IGF-1: insulin growth factor-1, a known GSK-3 inhibitor” here?
Answer: Its value is “reduced infarct size”.

Question: Which results are given for `Cc1nc(-c2ccccc2Cl)nc(Nc2n[nH]c3ccc(F)cc23)c1C` [Compound I-3]?
Answer: WBC nadir (lowest cell count observed) ([2]; 5-FU + Compound I-3 10 mg/Kg twice daily): 4 days; WBC nadir (lowest cell count observed) ([2]; 5-FU + Compound I-3 30 mg/Kg twice daily): 4 days; kinetics of the WBC and ANC recovery ([2]; 5-FU + high dose (30 mg/Kg twice daily)): enhanced; Bone marrow cellularity: recovery to normal values ([2]; 5-FU + high dose of test compound): 10 days; bone marrow cell counts versus 5-FU and rhG-CSF ([2]; 5-FU and high dose, day 8): significantly higher; bone marrow cellularity nadir ([2]; 5-FU and high dose, versus other groups): did not have as low a nadir as other groups; Platelet counts ([2]; 5FU + high dose, day 8): soared above the reference ranges; kinetics of bone marrow cellular recovery ([2]; Group 5 (high dose) versus Groups 3 and 4): fastest; WBC and ANC recovery compared to 5-FU and rhG-CSF ([2]; high dose): comparable; WBC and ANC recovery compared to 5-FU and solvent control ([2]; high dose, days 8 and 10): significantly increased; induction of β-catenin (β-catenin [3]): no induction; pTYR signal compared to vehicle treated rats (GSK-3 α/β pTYR): significant reduction; number of BrdU positive cells in the ipsilateral SVZ compared with vehicles ([4]; 14 days after MCAO): significantly (p<0.05) increased; adhesive removal test compared with vehicle group [4, 6]: significant (p<0.05) improvement; mNSS test compared with vehicle group [4, 6]: significant (p<0.05) improvement; induction of β-catenin (β-catenin [5]): no induction; pTYR signal compared to vehicle treated animals (GSK-3α/β pTYR): significant reduction

B1: rhG-CSF: recombinant human granulocyte colony stimulating factor; a cytokine known to enhance recovery (protein, UniProt P09919 31-207, looked up)
Granulocyte …: TPLGPASSLPQSFLLKCLEQVRKIQGDGAALQEKLVSECATYKLCHPEELVLLGHSLGIPWAPLSSCPSQALQLAGCLSQLHSGLFLYQGLLQALEGISPELGPTLDTLQLDVADFATTIWQQMEELGMAPALQPTQGAMPAFASAFQRRAGGVLVASHLQSFLEVSYRVLRHLAQP
Question: Which results are given for B1?
Answer: ANC nadir ([2]; 5-FU + rhG-CSF 50 ug/kg twice daily): 4 days; WBC nadir (lowest cell count observed) ([2]; 5-FU + rhG-CSF 50 ug/kg twice daily, days 1 through 4): 4 days; Platelet counts ([2]; 5-FU + rhG-CSF, day 8): soared above the reference ranges; actual neutrophil counts (ANC) ([2]; 5-FU + rhG-CSF, days 4 and 6): almost non-detectable levels

Source: patent US20110224197A1, “PYRIMIDINES AND PYRIDINES USEFUL AS INHIBITORS OF PROTEIN KINASES” (Vertex Pharmaceuticals Incorporated, priority 2008, published 2011)
